Measurements reported in patent US20170283408A1, “BENZO-HETEROCYCLIC COMPOUNDS AND THEIR APPLICATIONS” (priority 2014, published 2017).

Columns and labels:
PD-L1 [1] = assay: PD-L1 level in LPS-primed monocyte model (flow cytometry); assay type: cell-based, human; conditions: for expression level of PD-L1 in LPS-primed monocytes, of that of the control: compound at 10 μM, LPS 100 ng/mL, relative to control
From the text: (§1) White blood cells of test subjects including healthy volunteers recruited from the Taiwan Blood Service Foundation (Taipei, Taiwan) and septic patients were obtained with written informed consents. Human monocytes were then isolated in accordance with procedures described previously (Chen I H et al., Cancer Immunol Immunother (2010) 59, 323-334). Briefly, peripheral blood mononuclear cells (PBMCs) were isolated using Ficoll-Paque Plus (GE Healthcare) gradient centrifugation. The monocytes were further purified by conducting CD14 selection using CD14 MACS microbeads (Miltenyi Biotec). The purity of monocytes confirmed using flow cytometry analysis was approximately 90%. Monocytes were incubated with endotoxin LPS (100 ng/ml) for 72 hours. At the indicated time point, the cells were harvested and the PD-L1 and HLA-DR molecules were analyzed using flow cytometry. Murine B16F10 cell lines maintained in Dulbecco's modified Eagle's medium (DMEM), 10% heat-inactivated fetal calf serum, 2 mM L-glutamine, penicillin (100 U/ml), and streptomycin (100 μg/ml) at 37 C in a 5% CO2 humidified atmosphere.
(§2) To analyze the surface phenotype of the monocytes, the cells were incubated for 30 minutes on ice in the dark with the following mAbs diluted in phosphate-buffered saline (PBS) containing 1% BSA: PD-L1-FITC, HLA-DR-PE, CD14-PerCP (BD Biosciences). Monocytes were gated based on their FSC/SSC properties. Fluorescence was detected using FACS Calibur, and data analysis was performed using FCS Express version 3 (De Novo Software).
In this example, an LPS-primed monocyte model was established and then used to evaluate the function of the compound of example 1. Specifically, monocytes isolated from healthy subjects according to procedures described in the “Materials and methods” section were incubated with LPS (100 ng/mL) for 72 hours, then respective levels of PD-L1 and HLA-DR were determined. Results are illustrated in FIG. 2.
The effects of the compounds of example 1 were tested in the LPS-primed monocyte model of example 3.1, in which various concentrations of ML-C19-A, ML-C19-B, ML-A1-B, and ML-A1-C were incubated with LPS-primed monocytes of example 3.1; results are illustrated in FIGS. 3 and 4.

HLA-DR = HLA-DR level in LPS-primed monocyte model (flow cytometry); assay type: cell-based, human; conditions: LPS-primed monocytes; FIG. 3
From the text: as §1, §2
In this example, an LPS-primed monocyte model was established and then used to evaluate the function of the compound of example 1. Specifically, monocytes isolated from healthy subjects according to procedures described in the “Materials and methods” section were incubated with LPS (100 ng/mL) for 72 hours, then respective levels of PD-L1 and HLA-DR were determined. Results are illustrated in FIG. 2. […]

PD-L1 [2] = assay: PD-L1 expression on IFN-γ stimulated B16F10 cells (flow cytometry); assay type: cell-based, murine; conditions: various concentrations, 1 day; FIG. 5
Experimental: as §1, with “IFN-γ stimulated-monocytes were incubated in the presence of either a DMSO vehicle control, ML-A1-B or ML-A1-C for 1 day. Treated cells were harvested and the PD-L1 molecules were analyzed using flow cytometry. Surface molecule expression is presented as the MFI relative to each day that the cells were treated with the DMSO vehicle control medium. Values are presented as the mean±SEM from 3 independent experiments. White” for “White”, “Murine B16F10 cell lines maintained in Dulbecco's modified Eagle's medium (DMEM), 10% heat-inactivated fetal calf serum, 2 mM L-glutamine, penicillin (100 U/ml), and streptomycin (100 μg/ml) at 37 C in a 5% CO2 humidified atmosphere.” left out

B16F10 lung metastases [3] = assay: B16F10 lung metastasis model in C57BL/6 mice; assay type: in vivo; conditions: 2 mg/kg ip daily, day 14, n=11/group
Experimental: (§3) C57BL/6 (n=11/group) mice were injected i.v. with 2×10^5 of the B16F10 tumor cells. Two mg/kg of ML-A1-B, ML-A1-C, or with DMSO vehicle control were used. The animals were killed on day 14 and tumor nodules in the lungs were counted. Data are presented as the number of each individual mouse and the mean of each group. Representative photographs of the lung of each group are also shown (left).
(§4) C57BL/6 mice (6 to 8 weeks old) and NOD/SCID mice (6 to 8 weeks old) were purchased from the National Laboratory Animal Center (Taipei, Taiwan). All animal experiments were performed under specific pathogen-free conditions and in accordance with guidelines approved by the Animal Care and Usage Committee of Mackay memorial hospital (Taipei, Taiwan).
(§5) To generate lung metastases, mice were injected intravenously with 2×10^5 B16F10 cells, a dose consistently yielding lung metastases in 100% of animals. 2 mg/kg compounds and 5% DMSO vehicle control were given ip daily to test the effect of compounds on tumor metastatsis. The amount of tumor seeding was counted as total numbers of black nodules presented in the lungs under microscopy.
To examine the therapeutic effect of ML-A1-B and ML-A1-C against pre-established B16F10 lung metastases, mice were iv injected with 2×10^5 B16F10 tumor cells and treated with, per mouse, 2 mg/kg of ML-A1-B, ML-A1-C, or with DMSO vehicle control.

B16F10 lung metastases [4] = assay: B16F10 lung metastasis model in NOD/SCID mice; assay type: in vivo; conditions: 2 mg/kg, day 14, n=5/group
Experimental: as §3, with “NOD/SCID (n=5/group)” for “C57BL/6 (n=11/group)”
as §4
as §5, with “microscopy. […]” for “microscopy.”

[5] = In vivo toxic study (body weight); conditions: 20 mg/kg ip daily; C57BL/6
Experimental: C57BL/6 mice were ip injected daily with 20 mg/kg of ML-A1-B, or ML-A1-C, or 5% DMSO vehicle control, and their body weight were measured on the indicated days.
To investigate toxicity of ML-A1-B and ML-A1-C, mice were injected ip daily with 20 mg/kg of ML-A1-B or ML-A1-C or 5% DMSO vehicle control.

[6] = system: murine B16F10 melanoma cells; assay: MTS cytotoxicity assay, B16F10; assay type: cell-based; conditions: Mus musculus, B16-F10, B16F10; FIG. 6; read-out: IC50 (MTS assay), B16F10 melanoma cell line
Experimental: (§6) The B16F10 and human PBMCs were incubated in the presence of various concentrations of ML-A1-B and ML-A1-C compounds for 1 day. The cell cytotoxicity was monitored through MTS assay. Optical density of DMSO control groups was taken as 100% of cell viability. Values are presented as the mean±SEM from 3 independent experiments.
(§7) 5×10^3 of B16F10 cells were seeded into 96-well plates and treated with the following: DMSO control, various concentrations of naphthalimide derived compounds for 2 day. For the MTS assay (Promega), 40 ul of the MTS reagent was added into each well. Cells were incubated at 37° C. for 4 hr. The absorbance was detected at OD490 nm.
(§8) The cytotoxicity of various concentrations of ML-A1-B and ML-A1-C against murine B16F10 melanoma cells and human PBMCs were examined by MTS assay. […] Therapeutic index by MTS assay is about 5.62.

human PBMCs = assay: MTS cytotoxicity assay, human PBMCs; assay type: cell-based
Experimental: as §6, §7, §8

B16F10 lung metastases [7] = assay: Compounds and anti-PD-1 antibody combination therapy in B16F10 lung metastasis model (survival); assay type: in vivo, C57BL/6 mice; conditions: compound 2 mg/kg daily combined with anti-PD-1 (J43) 5 mg/kg every 3-4 days; C57BL/6
Experimental: C57BL/6 mice were injected iv with 2×10^5 B16F10 cells on Day0. On Day1, mice were injected ip with either control hamster Ig (CTRL IgG) or hamster anti-mouse-PD-1 (J43) at 5 mg/kg every 3-4 days. For combination therapies, mice were daily injected with 2 mg/kg of ML-C19-A or ML-A1-C combined with anti-mouse PD-1 (5 mg/kg) every 3-4 days. Long-term of survival of treated mice in each of the experimental groups were observed.
To examine whether combination of ML-C19-A or ML-A1-C with anti-PD-1 antibody would prolong mice survival in B16F10 lung metastasis model, mice were injected ip with compounds and anti-PD-1 antibody.

Row | SMILES | expression level of PD-L1 in LPS-primed monocytes, of that of the control (PD-L1 [1]) | levels of HLA-DR expression (HLA-DR) | PD-L1 on IFN-γ stimulated murine B16F10 melanoma cell line (PD-L1 [2]) | number of lung metastases (lung nodules), mean (B16F10 lung metastases [3]) | number of lung metastases (lung nodules), range (B16F10 lung metastases [3]) | lung metastasis in immune deficient NOD/SCID mice (B16F10 lung metastases [4]) | body weight of the mice [5] | visible sign of toxicity [5] | IC50 [6] [µM] | IC50 (human PBMCs; Homo sapiens, PBMC, human PBMCs, FIG. 6) [µM] | Therapeutic index by MTS assay (human PBMCs; ratio of PBMC IC50 to B16F10 IC50) | overall survival (B16F10 lung metastases [7]) | reduction in PD-L1 level as compared with that of the control (PD-L1 [1]; LPS-primed monocytes, FIG. 3) [%]
1 | CN(C)CCN1C(=O)c2cccc3c(-c4nc5ccccc5o4)ccc(c23)C1=O [ML-A1-B, 6-(Benzo[d]oxazol-2-yl)-2-(2-(dimethylamino)ethyl)-1H-benzo[de]isoquinoline-1,3(2H)-dione] | ~9.4% | capable of altering the levels of HLA-DR expression | significantly suppresses PD-L1 | 41 | 2-90 | failed to inhibit lung metastasis | do not significantly reduce the body weight | no visible sign of toxicity |  |  |  |  | 
2 | CN(C)CCN1C(=O)c2cccc3c(-c4nc5ccccc5s4)ccc(c23)C1=O [ML-A1-C, 6-(Benzo[d]thiazol-2-yl)-2-(2-(dimethylamino)ethyl)-1H-benzo[de]isoquinoline-1,3(2H)-dione] | ~50.8% | capable of altering the levels of HLA-DR expression | significantly suppresses PD-L1 | 30 | 3-59 | failed to inhibit lung metastasis | do not significantly reduce the body weight | no visible sign of toxicity | 7.8 ± 0.05 | 48.3 ± 0.14 | about 5.62 | an increase in overall survival | 
3 | NS(=O)(=O)c1ccc(N2C(=O)c3cccc4cccc(c34)C2=O)cc1 [ML-C19-A] | about 37.5% |  |  |  |  |  |  |  |  |  |  | an increase in overall survival | 
4 | NS(=O)(=O)c1ccc(N2C(=O)c3cccc4c(Br)ccc(c34)C2=O)cc1 [ML-C19-B, 4-(6-bromo-1,3-dioxo-1H-benzo[de]isoquinolin-2(3H)-yl)benzene-sulfonamide] |  | capable of altering the levels of HLA-DR expression |  |  |  |  |  |  |  |  |  |  | 20
